Test results published in patent EP2530078A1, “THIAZOLE DERIVATIVE” (Takeda Pharmaceutical Company Limited, priority 2010, dated 2011).
Where a name gives a salt, the structure may show the parent alone.

The compounds below were run against T1, human GPR52 (Homo sapiens, UniProt Q9Y2T5) (assay: Increase of intracellular cAMP concentration in human GPR52-expressing CHO cell (AlphaScreen cAMP assay)). Details: 0.5 h; test compound 10 µm, 37°C, 30 min, human GPR52-expressing CHO(dhfr-) cells; 100% = cAMP with 1 µM N-(2-hydroxyethyl)-3-[2-[3-(trifluoromethyl)benzyl]-1-benzofuran-4-yl]benzamide, 0% = DMSO; read-out: GPR52 agonist activity (%).
T1 construct: expressed in transfected cells; host or cells: CHO(dhfr-) cells
T1 sequence (Q9Y2T5 whole entry): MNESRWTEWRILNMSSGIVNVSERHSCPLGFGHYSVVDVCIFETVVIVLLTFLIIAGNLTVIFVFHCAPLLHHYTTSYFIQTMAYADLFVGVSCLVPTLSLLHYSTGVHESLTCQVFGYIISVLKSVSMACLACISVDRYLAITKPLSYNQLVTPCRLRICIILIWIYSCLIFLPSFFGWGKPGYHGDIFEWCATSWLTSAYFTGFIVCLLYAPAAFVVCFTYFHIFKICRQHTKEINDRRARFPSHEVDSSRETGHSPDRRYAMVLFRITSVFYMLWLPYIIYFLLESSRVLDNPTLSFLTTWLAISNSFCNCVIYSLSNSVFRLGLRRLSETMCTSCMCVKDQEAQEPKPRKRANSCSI
Format: cell-based
Description: Increase of intracellular cAMP concentration in human GPR52-expressing CHO cell
Using OptiPlate-384 (PerkinElmer Inc.), 1×10^4 human GPR52-expressing CHO(dhfr-) cells were incubated together with a test compound ([…]) in an assay buffer (30 µL, HBSS (containing Ca^2+ and Mg^2+), 0.5% BSA, 100 µM IBMX, 100 µM Ro20-1724, 5 mM HEPES (pH 7.55)) at 37°C for 30 min. Thereafter, according to the protocol of AlphaScreen cAMP Assay Kit (PerkinElmer Inc.), the intracellular cAMP concentration was measured by EnVision (PerkinElmer Inc.). The GPR52 agonist activity was calculated, assuming the intracellular cAMP concentration in the presence of 1 µM N-(2-hydroxyethyl)-3-[2-[3-(trifluoromethyl)benzyl]-1-benzofuran-4-yl]benzamide to be 100% and assuming the intracellular cAMP concentration when DMSO was added instead of the test compound to be 0%.

Row | activation at 10 µM | SMILES
1 | 71% | Cc1nc(Cc2cccc(C(F)(F)F)c2)sc1NC(=O)C1CCCNC1 (stereo not drawn) [Example 29, N-{4-methyl-2-[3-(trifluoromethyl)benzyl]-1,3-thiazol-5-yl}piperidine-3-carboxamide hydrochloride]
2 | 70% | Cc1nc(Cc2cccc(C(F)(F)F)c2)sc1NC(=O)C1CCNCC1 [Example 33, N-{4-methyl-2-[3-(trifluoromethyl)benzyl]-1,3-thiazol-5-yl}piperidine-4-carboxamide hydrochloride]
3 | 79% | Cc1nc(Cc2cccc(C(F)(F)F)c2)sc1NC(=O)C1(C#N)CC1 [Example 39, 1-cyano-N-{4-methyl-2-[3-(trifluoromethyl)benzyl]-1,3-thiazol-5-yl}cyclopropanecarboxamide]
4 | 80% | Cc1nc(Cc2cccc(C(F)(F)F)c2)sc1NC(=O)c1ccoc1C [Example 40, 2-methyl-N-{4-methyl-2-[3-(trifluoromethyl)-benzyl]-1,3-thiazol-5-yl}furan-3-carboxamide]
5 | 72% | Cc1nc(Cc2cccc(C(F)(F)F)c2)sc1NC(=O)c1nccn1C [Example 41, 1-methyl-N-{4-methyl-2-[3-(trifluoromethyl)-benzyl]-1,3-thiazol-5-yl}-1H-imidazole-2-carboxamide]
6 | 73% | Cc1nc(Cc2cccc(C(F)(F)F)c2)sc1NC(=O)c1cncn1C [Example 43, 1-methyl-N-{4-methyl-2-[3-(trifluoromethyl)-benzyl]-1,3-thiazol-5-yl}-1H-imidazole-5-carboxamide]
7 | 82% | Cc1nc(Cc2cccc(C(F)(F)F)c2)sc1NC(=O)c1c(C)nn(C)c1C [Example 47, 1,3,5-trimethyl-N-{4-methyl-2-[3-(trifluoromethyl)-benzyl]-1,3-thiazol-5-yl}-1H-pyrazole-4-carboxamide]
8 | 77% | Cc1nc(Cc2cccc(C(F)(F)F)c2)sc1NC(=O)c1c(C)nn(C)c1Cl [Example 51, 5-chloro-1,3-dimethyl-N-{4-methyl-2-[3-(trifluoromethyl)-benzyl]-1,3-thiazol-5-yl}-1H-pyrazole-4-carboxamide]
9 | 86% | CSc1ncccc1C(=O)Nc1sc(Cc2cccc(C(F)(F)F)c2)nc1C [Example 76, 2-(methylsulfanyl)-N-{4-methyl-2-[3-(trifluoromethyl)-benzyl]-1,3-thiazol-5-yl}pyridine-3-carboxamide]
10 | 82% | Cc1nc(Cc2cccc(C(F)(F)F)c2)sc1NC(=O)c1ccnn1C [Example 110, 1-methyl-N-{4-methyl-2-[3-(trifluoromethyl)-benzyl]-1,3-thiazol-5-yl}-1H-pyrazole-5-carboxamide]
11 | 96% | Cc1nc(Cc2cccc(C(F)(F)F)c2)sc1NC(=O)c1ccc(CCN2CCCC2)nc1 [Example 122, N-{4-methyl-2-[3-(trifluoromethyl)-benzyl]-1,3-thiazol-5-yl}-6-(2-pyrrolidin-1-ylethyl)pyridine-3-carboxamide]
12 | 78% | Cc1cc(C(=O)Nc2sc(Cc3cc(F)cc(Cl)c3)nc2C)n(C)n1 [Example 147, N-[2-(3-chloro-5-fluorobenzyl)-4-methyl-1,3-thiazol-5-yl]-1,3-dimethyl-1H-pyrazole-5-carboxamide]
13 | 75% | Cc1nc(Cc2cc(F)cc(Cl)c2)sc1NC(=O)c1cc(Cl)nn1C [Example 149, 3-chloro-N-[2-(3-chloro-5-fluorobenzyl)-4-methyl-1,3-thiazol-5-yl]-1-methyl-1H-pyrazole-5-carboxamide]
14 | 69% | Cc1nc(Cc2cc(F)cc(Cl)c2)sc1NC(=O)c1ccnn1C(F)F [Example 150, N-[2-(3-chloro-5-fluorobenzyl)-4-methyl-1,3-thiazol-5-yl]-1-(difluoromethyl)-1H-pyrazole-5-carboxamide]
15 | 69% | Cc1nc(Cc2cc(F)cc(Cl)c2)sc1NC(=O)c1ccnn1C(C)C [Example 151, N-[2-(3-chloro-5-fluorobenzyl)-4-methyl-1,3-thiazol-5-yl]-1-(1-methylethyl)-1H-pyrazole-5-carboxamide]
16 | 76% | Cc1nc(Cc2ccc(F)c(Cl)c2)sc1NC(=O)c1ccnn1C [Example 156, N-[2-(3-chloro-4-fluorobenzyl)-4-methyl-1,3-thiazol-5-yl]-1-methyl-1H-pyrazole-5-carboxamide]
17 | 77% | Cc1nc(Cc2cccc(Cl)c2)sc1NC(=O)c1ccnn1C [Example 157, N-[2-(3-chlorobenzyl)-4-methyl-1,3-thiazol-5-yl]-1-methyl-1H-pyrazole-5-carboxamide]
18 | 69% | Cc1nc(Cc2cc(F)cc(Cl)c2)sc1NC(=O)c1cc([N+](=O)[O-])nn1C [Example 158, N-[2-(3-chloro-5-fluorobenzyl)-4-methyl-1,3-thiazol-5-yl]-1-methyl-3-nitro-1H-pyrazole-5-carboxamide]
19 | 71% | CCOC(=O)c1cc(C(=O)Nc2sc(Cc3cc(F)cc(Cl)c3)nc2C)n(C)n1 [Example 159, ethyl 5-{[2-(3-chloro-5-fluorobenzyl)-4-methyl-1,3-thiazol-5-yl]carbamoyl}-1-methyl-1H-pyrazole-3-carboxylate]
20 | 74% | Cc1nc(Cc2ccc(F)c(F)c2)sc1NC(=O)c1ccnn1C [Example 160, N-[2-(3,4-difluorobenzyl)-4-methyl-1,3-thiazol-5-yl]-1-methyl-1H-pyrazole-5-carboxamide]
21 | 81% | COCCn1nccc1C(=O)Nc1sc(Cc2cc(F)cc(Cl)c2)nc1C [Example 161, N-[2-(3-chloro-5-fluorobenzyl)-4-methyl-1,3-thiazol-5-yl]-1-(2-methoxyethyl)-1-pyrazole-5-carboxamide]
22 | 70% | Cc1nc(Cc2cc(F)cc(Cl)c2)sc1NC(=O)c1ccnn1CC(C)C [Example 162, N-[2-(3-chloro-5-fluorobenzyl)-4-methyl-1,3-thiazol-5-yl]-1-(2-methylpropyl)-1H-pyrazole-5-carboxamide]
23 | 78% | Cc1nc(Cc2cc(F)cc(Cl)c2)sc1NC(=O)c1ccnn1CC(F)(F)F [Example 163, N-[2-(3-chloro-5-fluorobenzyl)-4-methyl-1,3-thiazol-5-yl]-1-(2,2,2-trifluoroethyl)-1H-pyrazole-5-carboxamide]
24 | 80% | Cc1nc(Cc2cc(F)cc(Cl)c2)sc1NC(=O)c1cc(C(N)=O)nn1C [Example 164, N^5-[2-(3-chloro-5-fluorobenzyl)-4-methyl-1,3-thiazol-5-yl]-1-methyl-1H-pyrazole-3,5-dicarboxamide]
25 | 88% | Cc1nc(Cc2cc(F)cc(Cl)c2)sc1NC(=O)c1cc(CO)nn1C [Example 166, N-[2-(3-chloro-5-fluorobenzyl)-4-methyl-1,3-thiazol-5-yl]-3-(hydroxymethyl)-1-methyl-1H-pyrazole-5-carboxamide]
26 | 70% | Cc1nc(Cc2cc(F)cc(Cl)c2)sc1NC(=O)c1ccc(=O)n(C)c1 [Example 167, N-[2-(3-chloro-5-fluorobenzyl)-4-methyl-1,3-thiazol-5-yl]-1-methyl-6-oxo-1,6-dihydropyridine-3-carboxamide]
27 | 76% | Cc1nc(Cc2cc(F)cc(Cl)c2)sc1NC(=O)c1nc([N+](=O)[O-])cn1C [Example 169, N-[2-(3-chloro-5-fluorobenzyl)-4-methyl-1,3-thiazol-5-yl]-1-methyl-4-nitro-1H-imidazole-2-carboxamide]
28 | 70% | Cc1nc(Cc2cc(F)cc(Cl)c2)sc1NC(=O)c1cnn(C)c1 [Example 171, N-[2-(3-chloro-5-fluorobenzyl)-4-methyl-1,3-thiazol-5-yl]-1-methyl-1H-pyrazole-4-carboxamide]
29 | 89% | Cc1nc(Cc2cc(F)cc(Cl)c2)sc1NC(=O)C1(S(C)(=O)=O)CC1 [Example 172, N-[2-(3-chloro-5-fluorobenzyl)-4-methyl-1,3-thiazol-5-yl]-1-(methylsulfonyl)cyclopropanecarboxamide]
30 | 71% | COCCNC(=O)C1(C(=O)Nc2sc(Cc3cc(F)cc(Cl)c3)nc2C)CC1 [Example 175, N-[2-(3-chloro-5-fluorobenzyl)-4-methyl-1,3-thiazol-5-yl]-N'-(2-methoxyethyl)cyclopropane-1,1-dicarboxamide]

Same assay, conditions: test compound 10 µm, 37°C, 30 min, human GPR52-expressing CHO(dhfr-) cells; 100% = cAMP with 1 µM N-(2-hydroxyethyl)-3-[2-[3-(trifluoromethyl)benzyl]-1-benzofuran-4-yl]benzamide, 0% = DMSO

Row | GPR52 agonist activity (%) | SMILES
31 | 93% | Cc1nocc1C(=O)Nc1sc(Cc2cccc(C(F)(F)F)c2)nc1C [Example 24, 3-methyl-N-{4-methyl-2-[3-(trifluoromethyl)benzyl]-1,3-thiazol-5-yl}isoxazole-4-carboxamide]
32 | 78% | Cc1cc(C(=O)Nc2sc(Cc3cccc(C(F)(F)F)c3)nc2C)c(C)o1 [Example 26, 2,5-dimethyl-N-{4-methyl-2-[3-(trifluoromethyl)benzyl]-1,3-thiazol-5-yl}furan-3-carboxamide]
33 | 81% | CCS(=O)(=O)N1CCC(C(=O)Nc2sc(Cc3cccc(C(F)(F)F)c3)nc2C)C1 (stereo not drawn) [Example 30, 1-(ethylsulfonyl)-N-(4-methyl-2-[3-(trifluoromethyl)benzyl]-1,3-thiazol-5-yl}pyrrolidine-3-carboxamide]
